These molecules were tested against Epidermal growth factor receptor (Homo sapiens, UniProt P00533) (assay: Tested for inhibition of Epidermal growth factor receptor from A431 vulval squamous carcinoma cells).
Chain of Epidermal growth factor receptor (P00533 whole entry): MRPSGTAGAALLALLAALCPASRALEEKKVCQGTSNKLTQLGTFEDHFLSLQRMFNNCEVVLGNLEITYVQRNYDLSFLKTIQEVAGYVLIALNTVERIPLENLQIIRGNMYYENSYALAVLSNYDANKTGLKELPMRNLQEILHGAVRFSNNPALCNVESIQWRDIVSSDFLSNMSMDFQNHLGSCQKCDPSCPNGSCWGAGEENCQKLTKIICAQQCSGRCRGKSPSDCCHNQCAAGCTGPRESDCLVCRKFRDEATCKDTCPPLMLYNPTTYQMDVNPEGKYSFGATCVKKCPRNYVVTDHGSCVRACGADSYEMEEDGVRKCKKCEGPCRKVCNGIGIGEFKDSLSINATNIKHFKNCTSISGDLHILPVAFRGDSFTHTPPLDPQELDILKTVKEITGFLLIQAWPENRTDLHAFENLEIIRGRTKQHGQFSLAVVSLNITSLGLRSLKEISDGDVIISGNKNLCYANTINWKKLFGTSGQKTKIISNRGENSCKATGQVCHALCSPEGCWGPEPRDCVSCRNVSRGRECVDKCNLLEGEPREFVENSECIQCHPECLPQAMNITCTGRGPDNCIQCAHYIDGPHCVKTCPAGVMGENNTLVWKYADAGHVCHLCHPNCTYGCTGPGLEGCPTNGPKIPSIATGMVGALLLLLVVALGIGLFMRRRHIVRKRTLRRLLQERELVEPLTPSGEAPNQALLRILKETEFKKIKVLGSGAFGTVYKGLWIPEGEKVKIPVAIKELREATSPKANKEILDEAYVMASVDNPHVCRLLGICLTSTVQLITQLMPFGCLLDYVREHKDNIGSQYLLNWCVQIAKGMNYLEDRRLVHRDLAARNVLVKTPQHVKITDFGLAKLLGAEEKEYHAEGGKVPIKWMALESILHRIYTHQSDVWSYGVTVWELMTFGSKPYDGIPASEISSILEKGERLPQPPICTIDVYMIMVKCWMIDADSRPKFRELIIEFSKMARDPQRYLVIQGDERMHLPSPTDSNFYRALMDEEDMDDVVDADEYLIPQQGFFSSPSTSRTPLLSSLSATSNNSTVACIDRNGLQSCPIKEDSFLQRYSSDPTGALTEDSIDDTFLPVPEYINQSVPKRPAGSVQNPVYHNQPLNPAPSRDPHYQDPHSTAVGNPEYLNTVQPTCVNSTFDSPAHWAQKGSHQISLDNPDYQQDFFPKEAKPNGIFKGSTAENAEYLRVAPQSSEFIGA

`COc1cc2ncnc(N3CCc4ccccc43)c2cc1OC` and `COc1cc2ncnc(NC3CCc4ccccc43)c2cc1OC` (centres undefined) are within 1.5-fold of each other in IC50: 820 nM for the first, 910 nM for the second.

First: COc1cc2ncnc(Nc3cncc4ccccc34)c2cc1OC
Second: COc1cc2ncnc(Nc3nccc4ccccc34)c2cc1OC
The IC50 of the first is 31-fold lower: 6.4 nM for the first, 200 nM for the second.

`COc1cc2ncnc(Nc3cnc4ccccc4n3)c2cc1OC` and `COc1cc2ncnc(Nc3nnc4ccccc4n3)c2cc1OC` are within 1.5-fold of each other in IC50: 780 nM for the first, 820 nM for the second.

Going from `COc1cc2ncnc(NC3CC3c3ccccc3)c2cc1OC` (centres undefined) to `COc1cc2ncnc(NC3CC3c3ccccc3)c2cc1OC(C)=O` (centres undefined), the IC50 rises from 10 nM to 84 nM (8.4-fold).

Going from `COc1cc2ncnc(NC3CC3c3ccccc3)c2cc1OCCN1CCOCC1` (centres undefined) to `COc1cc2ncnc(NC3CC3c3ccccc3)c2cc1OCCCN(C)C` (centres undefined), the IC50 falls from 300 nM to 27 nM (11-fold).

First: COc1cc2ncnc(NNc3ccc(F)c(Cl)c3)c2cc1OC
Second: COc1cc2ncnc(/N=N/c3ccc(F)c(Cl)c3)c2cc1OC
The IC50 of the first is 1.7-fold lower: 430 nM for the first, 730 nM for the second.

Going from `COc1cc2ncnc(NCc3cccc(C)c3)c2cc1OC` to `COc1cc2ncnc(NC3CC3c3ccccc3)c2cc1O` (centres undefined), the IC50 rises from 170 nM to 390 nM (2.3-fold). The first is the more potent here.
